Our source for the CLint scaled and half-life values is patent EP4748841A1, “BICYCLO[5,6] IMIDAZOLE PYRIMIDONE DERIVATIVE AND PREPARATION METHOD THEREFOR AND USE THEREOF” (Shujing Biopharma Co., Ltd, priority 2023, dated 2025).

Holding throughout (assay type): in vitro ADME
Series [1] is described as follows: Liver microsome stability experiment (human). To be noted: for CLint scaled at 1 µM: human, liver microsomes, pH 7.4, Human liver microsomes. How it is done:
(§1) This experiment aimed to evaluate the phase I metabolic stability of the compounds of the present disclosure in liver microsomes of SD rats, beagle dogs, cynomolgus monkeys, and humans.
(§2) • (1) Buffer preparation: 73.21 g of dipotassium hydrogen phosphate trihydrate and 10.78 g of potassium dihydrogen phosphate were dissolved in 4000 mL of ultrapure water. The pH of the solution was adjusted to within 7.40 ± 0.10 using 10% phosphoric acid or 1 M potassium hydroxide, resulting in a final concentration of 100 mM. • (2) Solution preparation and dilution: Stock solutions of the test compounds at a concentration of 10 mM were prepared in dimethyl sulfoxide (DMSO) and stored at 4 °C, and they were diluted into 100 µM working solutions with pure acetonitrile when used. A stock solution of the control compound testosterone at a concentration of 10 mM was prepared in DMSO and stored at -20 °C, and it was diluted into a 400 µM working solution with pure acetonitrile when used. • (3) Termination solution preparation: The termination solution was an acetonitrile solution containing an internal standard (terfenadine). The prepared termination solution was stored in a refrigerator at 2-8 °C. • (4) Liver microsome solution preparation: Liver microsomes from various species (SD rat, beagle dog, cynomolgus monkey, and human) were diluted into 20× working solutions using 100 mM potassium phosphate buffer. The final concentration of the liver microsomes in the reaction system was 0.5 mg/mL. • (5) Reduced nicotinamide adenine dinucleotide phosphate (NADPH) regeneration system preparation: Appropriate amounts of nicotinamide adenine dinucleotide phosphate (NADP), glucose-6-phosphate (G6P), magnesium chloride (MgCl2), and glucose-6-phosphate dehydrogenase (G6PDH) were weighed to prepare stock solutions at concentrations of 65.33 mM, 330 mM, 300 mM, and 250 Units/mL, respectively. The four stock solutions described above were each added to an appropriate amount of buffer, and the mixture was mixed well by gently inverting up and down. The final concentrations of NADP, G6P, MgCl2, and G6PDH in the NADPH regeneration system were 2.65 mM, 10.2 mM, 6.12 mM, and 2.45 Units/mL, respectively. • (6) Incubation process: The incubation was completed in 96-well plates. Several incubation plates were prepared and named T0, T5, T10, T20, T40, T60, and NCF60, respectively. The first 6 plates corresponded to reaction time points of 0 min, 5 min, 10 min, 20 min, 40 min, and 60 min, respectively. The NCF60 plate was incubated for 60 min with potassium phosphate buffer replacing the NADPH regeneration system solution. Samples under all conditions were prepared in triplicate.
(§3) 2 µL of the test compound or control compound and 100 µL of microsome working solution (containing 1 mg/mL liver microsome protein) were added to each of the T0, T5, T10, T20, T40, T60, and NCF60 plates, and only the microsome working solution was added to the Blank 60 plate. The plates described above were then pre-incubated in a 37 °C water bath for about 10 min.
(§4) After the pre-incubation was completed, 98 µL of the NADPH regeneration system working solution was added to each sample well except for the NCF60 plate and the T0 plate to initiate the reaction, and 98 µL of potassium phosphate buffer was added to each well of the NCF60 plate. Therefore, for the sample wells containing the test sample or control substance working solution, the final concentrations of TC and testosterone in the reaction were 1 µM and 4 µM, respectively, the concentration of liver microsomes was 0.5 mg/mL, and the final concentrations of DMSO and acetonitrile in the reaction system were 0.01% (v/v) and 0.99% (v/v), respectively.
(§5) After incubation for an appropriate time (e.g., 5 min, 10 min, 20 min, 40 min, and 60 min), 600 µL of a termination solution (an acetonitrile solution containing 100 ng/mL […]) was added to each test compound sample well and control compound sample well to terminate the reaction. […]
For orientation: Liver microsomes are a subcellular fraction often used to study metabolism.

A short description of series [2]: Liver microsome stability experiment (cynomolgus monkey). The settings on record: pH 7.4, Cynomolgus monkey liver microsomes, 0.5 mg/mL; for CLint scaled at 1 µM: cynomolgus monkey, liver microsomes. The method, then:
as §1, §2, §3, §4, §5

Series [3] in a line: Liver microsome stability experiment (beagle dog). To be noted: for CLint scaled at 1 µM: beagle, dog, liver microsomes, pH 7.4, Beagle dog liver microsomes. The method, then: as §1, §2, §3, §4, §5
Series [4] is described as follows: Liver microsome stability experiment (SD rat). The settings on record: for CLint scaled at 1 µM: SD, rat, liver microsomes, pH 7.4, SD rat liver microsomes. The method, then: as §1, §2, §3, §4, §5
Where [5] appears, read: 0.5 mg/mL, 1 µM, read-out: CL(liver).
[6] abbreviates: 0.5 mg/mL, 1 µM, read-out: CLint(liver).
[7] abbreviates: read-out: Clearance rate classification.

Bounds are passed on as bounds.

Broadly, the half-life is the time needed for the level to fall by half in the phase considered. Regarding `COCCN1CCC(N(Cc2ccc(-c3ccc(C(F)(F)F)cc3)cc2)C(=O)Cn2c(SCc3cccc(F)c3F)cc(=O)c3ccccc32)CC1` [Rilapladib], the CLint scaled at 1 µM is 15.4 mL/min/kg in series [1] (setting [5]); 60.3 mL/min/kg in series [1] (setting [6]); over 48.3 mL/min/kg in series [1] (setting [7]); 39.8 mL/min/kg in series [2] (read-out: CL(liver)); 461 mL/min/kg in series [2] (read-out: CLint(liver)); 8.8 mL/min/kg in series [3] (setting [5]). Further, the CLint scaled at 1 µM in series [3] (setting [6]) was 12.4 mL/min/kg; in series [3] (setting [7]), at most 13.2 mL/min/kg; in series [4] (setting [5]), under 10.8 mL/min/kg; in series [4] (setting [6]) it was under 13.4 mL/min/kg; in series [4] (setting [7]), at most 23.7 mL/min/kg. The half-life at 1 µM in series [1] (pH 7.4, Human liver microsomes, 0.5 mg/mL, 1 µM) is 20.7 min; in series [2], 4.06 min; in series [3] (pH 7.4, Beagle dog liver microsomes, 0.5 mg/mL, 1 µM), 162 min; in series [4] (pH 7.4, SD rat liver microsomes, 0.5 mg/mL, 1 µM) it was over 186 min.
